Data reported in patent US10947243B2, “Heteroaryl SYK inhibitors” (Boehringer Ingelheim International GmbH, priority 2014, dated 2021).

Molecular target: FLT3 (Homo sapiens (Human), UniProt P36888)
Sequence (P36888 564-958): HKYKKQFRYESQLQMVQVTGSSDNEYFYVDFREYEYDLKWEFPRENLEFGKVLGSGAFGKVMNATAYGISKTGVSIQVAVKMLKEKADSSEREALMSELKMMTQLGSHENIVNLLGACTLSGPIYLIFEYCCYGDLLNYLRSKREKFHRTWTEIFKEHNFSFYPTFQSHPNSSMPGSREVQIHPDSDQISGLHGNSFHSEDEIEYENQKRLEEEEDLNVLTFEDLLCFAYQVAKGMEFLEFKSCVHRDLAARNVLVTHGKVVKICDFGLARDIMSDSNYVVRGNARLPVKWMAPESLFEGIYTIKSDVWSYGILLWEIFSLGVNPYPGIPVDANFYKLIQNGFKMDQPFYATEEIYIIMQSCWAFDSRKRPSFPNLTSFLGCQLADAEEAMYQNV
Test: FLT3 Kinase Test (Z'-LYTE)
Format: biochemical
Details: comparison compounds, Example numbers of WO 2013/014060; read-out: IC50 in μM (FLT3-Inhibition)
Procedure: The activity of FLT3 is measured using the Z′-LYTE™ assay technology from Invitrogen (#PV3191)
The reaction is started by addition of 2.5 μl of the 4×ATP solution.
Positive controls are reaction mixtures containing no test compound; negative controls (blanks) are reaction mixtures containing no kinase. As a further control, the phosphopeptide solution is added to wells without kinase (=100% phosphorylation control).
The reaction is performed for 1 h at room temperature before 5 μl of the development solution is added. After a further incubation for 1 h at room temperature 5 μl of the stop reagent is added.
The output text file is evaluated in an “MS-Excel-VB-Makro” and “GraphPadPrism” (Version 5) (GraphPad Software Inc.) is used to calculate the results. Data for the inhibition of FLT3 are reported in M. data for the inhibition of the protease are reported in % CTL.
For COc1cc(-c2cc3nn(C)cc3c(O[C@H](C)[C@H]3CNC(=O)C3)n2)ccc1O [Example 8, (4R)-4-[(1R)-1-[6-(4-Hydroxy-3-methoxy-phenyl)-2-methyl-pyrazolo[4,3-c]pyridin-4-yl]oxyethyl]pyrrolidin-2-one], the IC50 was 0.369 µM.

Same assay, conditions: read-out: FLT3-inhibition IC50-value
Work on “(4R)-4-[(1R)-1-[6-[1-(Difluoromethyl)imidazol-4-yl]-2-methyl-pyrazolo[4,3-c]pyridin-4-yl]oxyethyl]pyrrolidin-2-one [Example 83]” yielded an IC50 of 25.6 µM.

Molecular target: Recombinant human Aurora B (amino acids 1-344) (Homo sapiens (Human), UniProt Q96GD4)
Sequence (Q96GD4 whole entry, the tested form may be a part): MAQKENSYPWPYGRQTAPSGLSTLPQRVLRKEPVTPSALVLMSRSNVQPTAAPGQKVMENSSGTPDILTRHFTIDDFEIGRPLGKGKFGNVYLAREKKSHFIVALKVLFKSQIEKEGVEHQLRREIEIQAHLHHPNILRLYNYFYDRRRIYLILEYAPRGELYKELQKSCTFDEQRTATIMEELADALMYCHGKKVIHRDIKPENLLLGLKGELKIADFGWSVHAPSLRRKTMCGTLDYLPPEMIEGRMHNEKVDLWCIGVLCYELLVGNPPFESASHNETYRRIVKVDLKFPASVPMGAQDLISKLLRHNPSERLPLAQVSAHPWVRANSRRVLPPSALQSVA
Test: Aurora B Kinase Test (ADP Glo luminescence)
Format: biochemical
Details: comparison compounds, Example numbers of WO 2013/014060; read-out: IC50 in μM (AURB-Inhibition)
Procedure: The activity of the Aurora B kinase protein was determined using the ADP Glo® Luminescence Kinase test (Promega; V9103X).
Serial Dilution is done in 1:10 steps in 100% DMSO.
Then 20 μl Kinase detection mix (Detection Buffer #V913B Promega; Kinase Detection Substrate #V914B Promega) were added and incubated for 40 minutes at room temperature.
The output file of the reader is a csv file that contains the well number and measured RLU. For data evaluation and calculation, the measurement of the negative control was set as 0% ctrl and the measurement of the positive control was set as 100% ctrl. Based on this values the % value for the measurement of each substance concentration was calculated using an Assay Explorer software (Accelrys). Normally, the % ctrl values calculated are between 0% and 100% values but may also occur outside these limits in individual cases based on variability or compound characteristics. The IC50 values were calculated from the % ctrl values using Assay Explorer software. Calculation: [y=(a−d)/(1+(x/c)^b)+d], a=low value, d=high value; x=conc M; c=IC50 M; b=hill; y=% ctrl.
COc1cc(-c2cc3nn(C)cc3c(O[C@H](C)[C@H]3CNC(=O)C3)n2)ccc1O [Example 8, (4R)-4-[(1R)-1-[6-(4-Hydroxy-3-methoxy-phenyl)-2-methyl-pyrazolo[4,3-c]pyridin-4-yl]oxyethyl]pyrrolidin-2-one] gave an IC50 of 0.643 µM.

Same assay, conditions: read-out: AURB-inhibition IC50-value
C[C@@H](Oc1cc(-c2ccn(C)n2)cc2nn(C)cc12)[C@H]1CNC(=O)C1 [Example 14, (4R)-4-[(1R)-1-[2-methyl-6-(1-methylpyrazol-3-yl)indazol-4-yl]oxyethyl]-pyrrolidin-2-one] showed an IC50 greater than 50 µM.
In the case of C[C@@H](Oc1nc(-c2ccc3cc(C(=O)N(C)C)n(C)c3c2)cc2nn(C)cc12)[C@H]1CNC(=O)C1 [Example 56, N,N,1-trimethyl-6-[2-methyl-4-[(1R)-1-[(3R)-5-oxopyrrol-idin-3-yl]ethoxy]pyrazolo[4,3-c]pyridin-6-yl]indole-2-carboxamide], the IC50 is reported as greater than 50 µM.

Test system: not listed separately
Test: Human Liver Microsomal Stability Test
Format: in vitro ADME
Details: human liver microsomes; comparison compounds, Example numbers of WO 2011/092128
Procedure: The metabolic degradation for a specific SYK-inhibitor is performed at 37° C. with pooled human liver microsomes (human liver microsomes are commercially available as “BD UltraPool™” by Corning Life Sciences, Fogostraat 12, 1060 LJ Amsterdam, The Netherlands). The final incubation volume of 100 μl per time point contains TRIS buffer pH 7.6 at RT (0.1 M), magnesium chloride (5 mM), microsomal protein (1 mg/ml) and the test compound at a final concentration of 1 μM.
Following a short preincubation period at 37° C., the reaction is initiated by addition of beta-nicotinamide adenine dinucleotide phosphate in its reduced form (NADPH, 1 mM) and terminated by transfering an aliquot into solvent after different time points. Additionally, the NADPH-independent degradation is monitored in incubations without NADPH, terminated at the last time point.
The quenched (terminated) incubations are then pelleted by centrifugation (10000 g, 5 min).
An aliquot of the supernatant is assayed by LC-MS/MS for the remaining amount of parent compound. The half-life (t½ INVITRO) is determined by the slope of the semilogarithmic plot of the concentration-time profile.
The intrinsic clearance (CL_[…]) is calculated by considering the amount of protein in the incubation: CL_[…] [μl/min/mg protein]=(Ln 2/(t½INVITRO [min]*protein content [mg/ml]))*1000
The protein content [mg/ml] was determined with the “Bicinchoninic Acid Kit” of Sigma Aldrich (commercially available).
The upscaled intrinsic Clearance (CL_UP_INT) is calcuated by considering the liver weight [g liver/kg body weight] and the microsomal recovery [mg protein/g liver]: CL_UP_INT [ml/min/kg]=0.001*CL_[…]*liver weight*microsomal recovery • with microsomal recovery=45 mg protein/g liver • with liver weight=25.7 g liver/kg body weight
The percent hepatic blood flow (% Qh) is finally calculated by considering the human liver blood flow Q [ml/min/kg]: % Qh [%]=((Q*CL_UP_INT)/(Q+CL_UP_INT)/Q)*100 • with liver blood flow (Q)=20.7 ml/min/kg.
For COc1cc(-c2cc3ncccc3c(O[C@H](C)[C@H]3CNC(=O)C3)n2)cc(OC)c1Cl [Example 8 of WO 2011/092128, reference compound], the “microsomal stability Cl [% Qh]” value was 77 % Qh.
With COc1cc(-c2cc3nn(C)cc3c(O[C@H](C)[C@H]3CNC(=O)C3)n2)ccc1O [Example 8, (4R)-4-[(1R)-1-[6-(4-Hydroxy-3-methoxy-phenyl)-2-methyl-pyrazolo[4,3-c]pyridin-4-yl]oxyethyl]pyrrolidin-2-one] the “microsomal stability Cl [% Qh]” value was 77 % Qh.
For COc1cc(-c2cc3ncccc3c(O[C@H](C)[C@H]3CNC(=O)C3)n2)ccc1OC(F)(F)F [compound 4], the “microsomal stability Cl [% Qh]” value was 33 % Qh.

Same assay, conditions: human liver microsomes; comparison compounds, Example numbers of WO 2013/014060
In the case of COc1cc(-c2cc(O[C@H](C)[C@H]3CNC(=O)C3)c3cccnc3c2)cc(OC)c1OC [Example 2 of WO 2013/014060, reference compound], the “microsomal stability Cl [% Qh]” value is reported as 81 % Qh.
With COc1cc(-c2cc3nn(C)cc3c(O[C@H](C)[C@H]3CNC(=O)C3)n2)ccc1O [Example 8, (4R)-4-[(1R)-1-[6-(4-Hydroxy-3-methoxy-phenyl)-2-methyl-pyrazolo[4,3-c]pyridin-4-yl]oxyethyl]pyrrolidin-2-one] the “microsomal stability Cl [% Qh]” value was 58 % Qh.
With Cc1nc2ccc(-c3cc(O[C@H](C)[C@H]4CNC(=O)C4)c4cccnc4c3)cc2s1 [compound 85] the “microsomal stability Cl [% Qh]” value was 49 % Qh.
For COc1cc(-c2cc(O[C@H](C)[C@H]3CNC(=O)C3)c3cccnc3c2)ccc1C(F)(F)F [compound 102], the “microsomal stability Cl [% Qh]” value was 54 % Qh.
In the case of Cc1nc2cc(-c3cc(O[C@H](C)[C@H]4CNC(=O)C4)c4cccnc4c3)ccc2n1C [compound 105], the “microsomal stability Cl [% Qh]” value is reported as 64 % Qh.
With Cc1nc(C)c2cc(-c3cc(O[C@H](C)[C@H]4CNC(=O)C4)c4cccnc4c3)ccc2n1 [compound 107] the “microsomal stability Cl [% Qh]” value was 38 % Qh.
For Cc1nc2cc(-c3cc(O[C@H](C)[C@H]4CNC(=O)C4)c4cccnc4c3)ccc2[nH]1 [compound 109], the “microsomal stability Cl [% Qh]” value was 41 % Qh.

Same assay, conditions: human liver microsomes; compounds of the invention (own Example numbers)
With COc1cc(-c2cc3nn(C)cc3c(O[C@H](C)[C@H]3CNC(=O)C3)n2)ccc1O [Example 8, (4R)-4-[(1R)-1-[6-(4-Hydroxy-3-methoxy-phenyl)-2-methyl-pyrazolo[4,3-c]pyridin-4-yl]oxyethyl]pyrrolidin-2-one] the “microsomal stability Cl [% Qh]” value was less than 23 % Qh.
With C[C@@H](Oc1cc(-c2cnn(C(C)(C)C)c2)cc2nn(C)cc12)[C@H]1CNC(=O)C1 [Example 18, (4R)-4-[(1R)-1-[6-(1-tert-butylpyrazol-4-yl)-2-methyl-indazol-4-yl]oxyethyl]pyrrolidin-2-one] the “microsomal stability Cl [% Qh]” value was less than 23 % Qh.
For C[C@@H](Oc1cc(-c2ccc3c(cnn3C)c2)cc2nn(C)cc12)[C@H]1CNC(=O)C1 [Example 28, (4R)-4-[(1R)-1-[2-methyl-6-(1-methylindazol-5-yl)indazol-4-yl]oxyethyl]pyrrolidin-2-one], the “microsomal stability Cl [% Qh]” value was less than 23 % Qh.
For C[C@@H](Oc1cc(-c2ccc3c(c2)c(N)nn3C)cc2nn(C)cc12)[C@H]1CNC(=O)C1 [Example 36, (4R)-4-[(1R)-1-[6-(3-amino-1-methyl-indazol-5-yl)-2-methyl-indazol-4-yl]oxyethyl]pyrrolidin-2-one], the “microsomal stability Cl [% Qh]” value was less than 23 % Qh.
In the case of COc1cc(-c2cc3nn(C)cc3c(O[C@H](C)[C@H]3CNC(=O)C3)n2)cc(OC)c1OC [Example 52, (4R)-4-[(1R)-1-[2-methyl-6-(3,4,5-trimethoxyphenyl)-pyrazolo[4,3-c]pyridin-4-yl]oxyethyl]pyrrolidin-2-one], the “microsomal stability Cl [% Qh]” value is reported as less than 23 % Qh.
For C[C@@H](Oc1nc(-c2ccc3c(cnn3C)c2)cc2nn(C)cc12)[C@H]1CNC(=O)C1 [Example 62, (4R)-4-[(1R)-1-[2-methyl-6-(1-methylindazol-5-yl)pyrazolo[4,3-c]pyridin-4-yl]oxyethyl]pyrrolidin-2-one], the “microsomal stability Cl [% Qh]” value was less than 23 % Qh.
For C[C@@H](Oc1nc(-c2ccc3cnn(C)c3c2)cc2nn(C)cc12)[C@H]1CNC(=O)C1 [Example 72, (4R)-4-[(1R)-1-[2-methyl-6-(1-methylindazol-6-yl)pyrazolo[4,3-c]pyridin-4-yl]oxyethyl]pyrrolidin-2-one], the “microsomal stability Cl [% Qh]” value was less than 23 % Qh.

Same assay, conditions: human liver microsomes; percent hepatic blood flow
For C[C@@H](Oc1cc(-c2ccccn2)cc2ncccc12)[C@H]1CNC(=O)C1 [6 of WO 2013/014060], the “microsomal stability Cl [% Qh]” value was 24 % Qh.
For C[C@@H](Oc1cc(-c2ccc(CN3CCOCC3)cc2)cc2ncccc12)[C@H]1CNC(=O)C1 [43 of WO 2013/014060], the “microsomal stability Cl [% Qh]” value was less than 23 % Qh.
With C[C@@H](Oc1nc(-c2ccc(N3CCOCC3)nc2)cc2ncccc12)[C@H]1CNC(=O)C1 [45 of WO 2011/092128] the “microsomal stability Cl [% Qh]” value was 53 % Qh.
For C[C@@H](Oc1cc(-c2ccc(C(=O)N3CCN(C)CC3)cc2)cc2ncccc12)[C@H]1CNC(=O)C1 [76 of WO 2013/014060], the “microsomal stability Cl [% Qh]” value was less than 23 % Qh.
With C[C@@H](Oc1cc(-c2ccc3c(c2)CNCC3)cc2ncccc12)[C@H]1CNC(=O)C1 [101 of WO 2013/014060] the “microsomal stability Cl [% Qh]” value was less than 23 % Qh.
With C[C@@H](Oc1cc(-c2ccc(N3CCOCC3)cc2)cc2nn(C)cc12)[C@H]1CNC(=O)C1 [Example 22, (4R)-4-[(1R)-1-[2-Methyl-6-(4-morpholinophenyl)indazol-4-yl]oxyethyl]-pyrrolidin-2-one] the “microsomal stability Cl [% Qh]” value was 25 % Qh.
In the case of C[C@@H](Oc1cc(-c2ccc(N3CCN(C)CC3)cc2)cc2nn(C)cc12)[C@H]1CNC(=O)C1 [Example 26, (4R)-4-[(1R)-1-[2-methyl-6-[4-(4-methylpiperazin-1-yl)phenyl]indazol-4-yl]oxyethyl]pyrrolidin-2-one], the “microsomal stability Cl [% Qh]” value is reported as less than 23 % Qh.
With CC(C)Oc1ccc(-c2cc(O[C@H](C)[C@H]3CNC(=O)C3)c3cn(C)nc3c2)cn1 [Example 27, (4R)-4-[(1R)-1-[6-(6-isopropoxy-3-pyridyl)-2-methyl-indazol-4-yl]oxyethyl]pyrrolidin-2-one] the “microsomal stability Cl [% Qh]” value was less than 23 % Qh.
In the case of C[C@@H](Oc1nc(-c2ccc(C(F)F)nc2)cc2nn(C)cc12)[C@H]1CNC(=O)C1 [Example 51, (4R)-4-[(1R)-1-[6-[6-(difluoromethyl)-3-pyridyl]-2-methyl-pyrazolo[4,3-c]pyridin-4-yl]oxyethyl]pyrrolidin-2-one], the “microsomal stability Cl [% Qh]” value is reported as less than 23 % Qh.
For COc1ccc(-c2cc3nn(C)cc3c(O[C@H](C)[C@H]3CNC(=O)C3)n2)cn1 [Example 59, (4R)-4-[(1R)-1-[6-(6-methoxy-3-pyridyl)-2-methyl-pyrazolo-[4,3-c]pyridin-4-yl]oxyethyl]-pyrrolidin-2-one], the “microsomal stability Cl [% Qh]” value was less than 23 % Qh.
In the case of C[C@@H](Oc1nc(-c2ccc(N3CCN(C)CC3)cc2)cc2nn(C)cc12)[C@H]1CNC(=O)C1 [Example 67, (4R)-4-[(1R)-1-[2-methyl-6-[4-(4-methylpiperazin-1-yl)phenyl]pyrazolo[4,3-c]pyridin-4-yl]oxyethyl]-pyrrolidin-2-one], the “microsomal stability Cl [% Qh]” value is reported as 34 % Qh.
